Measured values from patent US12134651B2, “Anti-Ryk antibodies and methods of using the same” (The Regents of the University of California, priority 2016, dated 2024).
“Also recorded” adds a separate entry of the source.

Test system: E16.5 cortical neurons
Experiment: Protection of cortical neurons from axonal degeneration induced by aPKC PS
Type: cell-based, mouse
Settings: 10 μM taxol 2 h prior to and during 2 h treatment of 7 μM aPKC PS
Experimental: Cerebral cortical cell culture—E16.5 mouse pregnant females were sacrificed by CO2 asphyxia and cervical dislocation. Embryos were removed from uterine horns. Skin, skull, and meninges were removed from embryo heads. The cortex was dissected in L-15 medium (Sigma), digested with 0.025% trypsin/0.221 mM EDTA (Mediatech) for 20 min followed by incubation in 5% horse serum prepared in L-15 medium for 5 min to inhibit trypsin. […]
Image acquisition and analysis—All images were acquired on an inverted Zeiss LSM510 confocal microscope with LSM acquisition software (Carl Zeiss Microscopy). For quantification of P-PKCζ T410 immunoreactivity in cell cultures, exposure time was adjusted to be under the saturation level for the highest immunofluorescence signal and was conserved between the different samples. Mean immunofluorescence intensity level in neuronal cell bodies was measured using FiJi-ImageJ software (NIH). All quantifications were performed on 10 non-overlapping fields in cell cultures from at least three independent experiments and on four non-consecutive sections from at least three animals for in vivo experiments. […]

CC(=O)O[C@H]1C(=O)[C@@]2(C)[C@H]([C@H](OC(=O)c3ccccc3)[C@]3(O)C[C@H](OC(=O)[C@H](O)[C@@H](NC(=O)c4ccccc4)c4ccccc4)C(C)=C1C3(C)C)[C@]1(OC(C)=O)CO[C@@H]1C[C@@H]2O [taxol, reference compound]
axon degeneration induced by aPKC inhibition: reduced; also recorded: partially prevented
